From patent US9040071B2, “Pary-xylene based microfilm elution devices” (Cute Lovable Teddy Bear, LLC., priority 2009, dated 2015)
Counter-ions that a name gives are not always drawn.

How the values were obtained:
Assay type in all cases: physicochemical
[1] = Therapeutic spreading on unoxidized vs oxidized parylene layer (Example 1)
Description: Referring to FIG. 4, Example 1 is an experiment to compare therapeutic spreading with respect to an unoxidized parylene layer and an oxidized parylene layer. The therapeutic analyte was Doxorubicin-HCl. Doxorubicin-HCl is the salt version of the anti-cancer chemotherapeutic Doxorubicin: (8S,10S)-8-acetyl-10-[(2S,4S,5S,6S)-4-amino-5-hydroxy-6-methyl-oxan-2-yl]oxy-6,8,11,14-tetrahydroxy-1-methoxy-9,10-dihydro-7H-tetracene-5,12-dione, having four fused six member rings of which two are unsaturated and one is a dione and a pendant sugar group The Doxorubicin-HCl has a red color and is easily visualized with no additional modification.
FIG. 5 is plot of therapeutic intensity vs. distance a from the a peripheral margin along a great diameter. Discarding values at the margin, for unoxidized paralyene there are two peaks and three troughs with amplitude variation ranging from about 0.009 to about 0.012 with units being arbitrary values of intensity measurement. In contrast, for oxidized paralyene, there are no significant peaks or troughs and near constant intensity at about 0.008.

[2] = Doxorubicin-HCl elution, multilayer laminate vs single layer barrier, in water and media (Example 5); conditions: for elution rate: compared with 0.05 gram-layer constructs
[3] = Paclitaxel elution from parylene devices (Example 9); conditions: uncovered devices (no top layer); PBS, 37 degrees Celsius; judged by visualization of the devices
Description: Referring to FIG. 14, Example 9 is an experiment to test the elution of paclitaxel (taxol). Paclitaxel is smaller hydrophobic molecule drug and has the chemical composition of (2α,4α,5β,7β,10β,13α)-4,10-bis(acetyloxy)-13-{[(2R,3S)-3-(benzoylamino)-2-hydroxy-3-phenylpropanoyl]oxy}-1,7-dihydroxy-9-oxo-5,20-epoxytax-11-en-2-yl benzoate. It is a microtubule stabilizing therapeutic with anti-cancer properties.
A series of trilayer devices were constructed having a top barrier layer having a mass of 0.3, 0.45, or 0.6 gram oxidized parylene.
Devices containing no top layer (uncovered) were not maintained as part of these experiments in that all of the drug is released from uncovered devices within the first 24 hours. […] With rapidly increasing concentration, the paclitaxel rapidly precipitates out of solution (visible by the accumulation of white precipitate) making quantification of the released drug impossible. Drug release from uncovered devices was determinable by the visualization of the devices and noticing the lack of drug on their surfaces.
For each time point, peak absorbance was measured at 230 nanometers at which paclitaxel is readily detectable.

[4] = oxidized parylene relative to unoxidized parylene, 50 μg desiccated, two replicates

Row | Compound | radius of stained area [1, 4] | surface area of stained area [1, 4] | therapeutic intensity ([1]; oxidized parylene, no significant peaks or troughs, near constant) | drug release vs single layer device of 0.05 gram laminate ([2]; media, multilayer laminate 3×0.05 grams) | drug release vs single layer device of 0.05 gram laminate ([2]; media, multilayer laminate 5×0.05 grams) | drug release vs single layer device of 0.05 gram laminate ([2]; media, multilayer laminate 7×0.05 grams) | elution profile compared among constructs ([2]; media, multilayer laminate constructs of 3×0.05, 5×0.05 and 7×0.05 grams) | drug release ([2]; media, single layer laminate device of 0.15 grams, regular parylene C) | drug release ([2]; media, single layer laminate device of 0.25 grams, regular parylene C) | drug release ([2]; media, single layer laminate device of 0.35 grams, regular parylene C) | elution profile compared among constructs ([2]; water, constructs of 1×0.05, 3×0.05, 5×0.05 and 7×0.05 grams) | elution rate ([2]; water, single layer laminate device of 0.15 grams) | elution rate ([2]; water, single layer laminate device of 0.25 grams) | drug release ([2]; water, single layer laminate device of 0.35 grams) | time within which all of the drug is released [3] [h]
1 | COc1cccc2c1C(=O)c1c(O)c3c(c(O)c1C2=O)C[C@@](O)(C(=O)CO)C[C@@H]3O[C@H]1C[C@H](N)[C@H](O)[C@H](C)O1 [Doxorubicin-HCl] | about twice the radius | four times the surface area | about 0.008 arbitrary values of intensity measurement | release less drug | release less drug | release less drug | approximately the same elution profile | do not release the drug | do not release the drug | do not release the drug | approximately the same elution profile | slower elution | slower elution | does not release the drug | –
2 | CC(=O)O[C@H]1C(=O)[C@@]2(C)[C@H]([C@H](OC(=O)c3ccccc3)[C@]3(O)C[C@H](OC(=O)[C@H](O)[C@@H](NC(=O)c4ccccc4)c4ccccc4)C(C)=C1C3(C)C)[C@]1(OC(C)=O)CO[C@@H]1C[C@@H]2O [paclitaxel, (2α,4α,5β,7β,10β,13α)-4,10-bis(acetyloxy)-13-{[(2R,3S)-3-(benzoylamino)-2-hydroxy-3-phenylpropanoyl]oxy}-1,7-dihydroxy-9-oxo-5,20-epoxytax-11-en-2-yl benzoate] | – | – | – | – | – | – | – | – | – | – | – | – | – | – | ≤ 24
